Measured values: ChEMBL document CHEMBL4420068, “Samhd1 modulation for treating resistance to cancer therapy” (2018)
Values after ≈ are worked out from the molar mass of the structure shown. Active and inactive are the calls of the source. The rule behind the calls is not given here.

What was measured:
[1] = tested on: THP-1; test: Ratio of cytotoxic IC50 for human THP1 (+/+) cells expressing wild type SAMHD1 to cytotoxic IC50 for human THP1 cells with CRISP/CAS9 SAMHD1 knockout; format: functional
[2] = tested on: THP-1; test: Ratio of cytotoxic IC50 for human THP1 cells with constitutively expressing high SAMHD1 expression to cytotoxic IC50 for parental human THP1 cells expressing low SAMHD1 expression; format: functional
[3] = tested on: U-251; test: Cytotoxic activity against human U251MG cells assessed as reduction in cell viability incubated for 96 hrs by MTT assay; format: functional, cell-based; conditions: U-251, 96 h
[4] = tested on: HEL; test: Cytotoxic activity against human HEL cells assessed as reduction in cell viability at 10 to 50 ug/ml in presence of lentiviral protein X- virus-like particles incubated for 96 hrs by MTT assay; format: functional, cell-based
[5] = tested on: HL-60; test: Cytotoxic activity against human HL60 cells assessed as reduction in cell viability at 10 to 50 ug/ml in presence of lentiviral protein X- virus-like particles incubated for 96 hrs by MTT assay; format: functional, cell-based
[6] = biological target: Deoxynucleoside triphosphate triphosphohydrolase SAMHD1 (Homo sapiens) (UniProt Q9Y3Z3); test: Substrate activity at SAMHD1 (unknown origin) expressed in bacterial system expressed in bacteria assessed as triphospho-hydolase activity by measuring cytarabine tri-phosphate […]
[7] = tested on: MOLM-13; test: Cytotoxic activity against human MOLM13 cells assessed as reduction in cell viability at 10 to 50 ug/ml in presence of lentiviral protein X- virus-like particles incubated for 96 hrs by MTT assay; format: functional, cell-based

Deoxynucleoside triphosphate triphosphohydrolase SAMHD1 (Homo sapiens), sequence (Q9Y3Z3 whole entry): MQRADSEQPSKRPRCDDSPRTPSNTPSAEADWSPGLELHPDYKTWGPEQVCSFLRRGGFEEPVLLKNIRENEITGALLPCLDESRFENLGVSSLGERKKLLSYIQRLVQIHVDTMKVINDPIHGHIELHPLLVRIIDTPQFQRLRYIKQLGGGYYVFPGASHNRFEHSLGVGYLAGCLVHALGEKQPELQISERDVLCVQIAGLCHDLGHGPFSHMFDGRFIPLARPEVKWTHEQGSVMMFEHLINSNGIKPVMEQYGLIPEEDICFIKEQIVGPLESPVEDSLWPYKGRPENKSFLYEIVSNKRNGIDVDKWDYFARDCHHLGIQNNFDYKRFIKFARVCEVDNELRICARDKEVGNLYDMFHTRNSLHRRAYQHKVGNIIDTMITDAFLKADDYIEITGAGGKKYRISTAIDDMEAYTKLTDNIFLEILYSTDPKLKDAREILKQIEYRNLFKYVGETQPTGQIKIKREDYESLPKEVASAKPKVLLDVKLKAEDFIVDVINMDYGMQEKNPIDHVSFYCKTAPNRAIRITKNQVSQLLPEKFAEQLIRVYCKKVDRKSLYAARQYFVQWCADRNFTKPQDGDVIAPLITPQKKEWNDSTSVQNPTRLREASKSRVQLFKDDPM

SMILES	Ratio IC50 [1]	Ratio IC50 [2]	further results
Nc1nc(Cl)nc2c1ncn2[C@H]1C[C@H](O)[C@@H](CO)O1 [CLADRIBINE]	1	2	
Nc1nc(Cl)nc2c1ncn2[C@@H]1O[C@H](CO)[C@@H](O)[C@@H]1F [CLOFARABINE]		11	
Nc1ccn([C@@H]2O[C@H](CO)[C@@H](O)[C@@H]2O)c(=O)n1 [CYTARABINE]			IC50 [3]: 0.022 µg/mL (≈ 0.0905 µM); Activity [4]: Active; Activity [5]: Active; Activity [6]: Active; Activity [7]: Active
COc1cccc2c1C(=O)c1c(O)c3c(c(O)c1C2=O)C[C@@](O)(C(C)=O)C[C@@H]3O[C@H]1C[C@H](N)[C@H](O)[C@H](C)O1 [DAUNORUBICIN]	1	1	
Nc1ncn([C@H]2C[C@H](O)[C@@H](CO)O2)c(=O)n1 [DECITABINE]	9	6	
Nc1nc(F)nc2c1ncn2[C@@H]1O[C@H](CO)[C@@H](O)[C@@H]1O [FLUDARABINE]		6	
Nc1ccn([C@@H]2O[C@H](CO)[C@@H](O)C2(F)F)c(=O)n1 [GEMCITABINE]	1	0.5	
COc1nc(N)nc2c1ncn2[C@@H]1O[C@H](CO)[C@@H](O)[C@@H]1O [NELARABINE]		4	
NC(=O)c1ncn([C@@H]2O[C@H](CO)[C@@H](O)[C@H]2O)n1 [RIBAVIRIN]	0.5	0.5	
Nc1nc2[nH]cnc2c(=S)[nH]1 [THIOGUANINE]	1	1	Activity [6]: Active
